US11149040B2, “Fused triazole agonists of the APJ receptor” (AMGEN INC., priority 2017, dated 2021)
pEC50: −log10 of the molar value.

These molecules were tested against human APJ receptor (Homo sapiens (Human), UniProt P35414) (assay: [35S]GTPγS binding assay on membranes from CHO cells stably expressing human APJ receptor). Conditions: read-out: Activity hAPJ SPA EC50 IP.
human APJ receptor, sequence (P35414 whole entry): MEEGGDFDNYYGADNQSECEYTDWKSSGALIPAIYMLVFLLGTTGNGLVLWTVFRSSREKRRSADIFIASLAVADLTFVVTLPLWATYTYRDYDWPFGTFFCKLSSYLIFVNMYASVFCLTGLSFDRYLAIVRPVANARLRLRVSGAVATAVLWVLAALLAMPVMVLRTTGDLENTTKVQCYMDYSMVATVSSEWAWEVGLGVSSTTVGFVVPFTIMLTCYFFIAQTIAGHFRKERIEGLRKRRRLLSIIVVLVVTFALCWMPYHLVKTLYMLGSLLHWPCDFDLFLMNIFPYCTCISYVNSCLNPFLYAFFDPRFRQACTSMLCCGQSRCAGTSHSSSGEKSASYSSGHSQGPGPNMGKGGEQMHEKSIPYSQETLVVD
Assay type: biochemical
Procedure: [^35S]GTPγS Binding The human APJ receptor was cloned by polymerase chain reaction and the gene encoding the receptor was subcloned in pFLAG-CMV™-3 expression vector (Sigma, Saint Louis, Mo. USA) in-house at Amgen. A GTPγS binding assay was performed on membranes prepared from CHO cells stably expressing human APJ receptor. The optimum experimental conditions for the concentrations of GDP, MgCl2, and NaCl in the assay buffer were initially determined. […] Incubation was at RT for 90 min and the microplate was read using a ViewLux™ ultra HTS Microplate Imager (PerkinElmer, Inc.). All the results presented are means of several independent experiments and analyzed by non-linear regression methods using the commercially available program Prism (GraphPad, San Diego, Calif.) providing the EC50 values detailed in Table 13.
COC[C@@H]1COc2ccc(OC)nc2-c2nnc(NS(=O)(=O)[C@@H](C)[C@H](C)c3ncc(C)cn3)n21 (mixture of isomers) [Example 10.0, (2S,3R)-N-((5R)-10-methoxy-5-(methoxymethyl)-5,6-dihydropyrido[2,3-f][1,2,4]triazolo[4,3-d][1,4]oxazepin-3-yl)-3-(5-methyl-2-pyrimidinyl)-2-butanesulfonamide and (2S,3R)-N-((5S)-10-methoxy-5-(methoxymethyl)-5,6-dihydropyrido[2,3-f][1,2,4]triazolo[4,3-d][1,4]oxazepin-3-yl)-3-(5-methyl-2-pyrimidinyl)-2-butanesulfonamide] was tested, and the pEC50 was 6.10.
COC[C@@H]1COc2ccc(OC)nc2-c2nnc(NS(=O)(=O)[C@@H](C)[C@@H](OC(C)C)c3ncc(C)cn3)n21 (mixture of isomers) [Example 11.0, (1S,2S)-N-((5R)-10-methoxy-5-(methoxymethyl)-5,6-dihydropyrido[2,3-f][1,2,4]triazolo[4,3-d][1,4]oxazepin-3-yl)-1-(5-methyl-2-pyrimidinyl)-1-(2-propanyloxy)-2-propanesulfonamide and (1S,2S)-N-((5S)-10-methoxy-5-(methoxymethyl)-5,6-dihydropyrido[2,3-f][1,2,4]triazolo[4,3-d][1,4]oxazepin-3-yl)-1-(5-methyl-2-pyrimidinyl)-1-(2-propanyloxy)-2-propanesulfonamide] was tested, and the pEC50 was 7.39.
For COC[C@@H]1COc2cc(F)c(F)cc2-c2nnc(NS(=O)(=O)[C@@H](C)[C@@H](OC(C)C)c3ncc(C)cn3)n21 (mixture of isomers) [Example 16.0, (1S,2S)-N-((5R)-9,10-difluoro-5-(methoxymethyl)-5,6-dihydro[1,2,4]triazolo[4,3-d][1,4]benzoxazepin-3-yl)-1-(5-methyl-2-pyrimidinyl)-1-(2-propanyloxy)-2-propanesulfonamide and (1S,2S)-N-((5S)-9,10-difluoro-5-(methoxymethyl)-5,6-dihydro[1,2,4]triazolo[4,3-d][1,4]benzoxazepin-3-yl)-1-(5-methyl-2-pyrimidinyl)-1-(2-propanyloxy)-2-propanesulfonamide], the pEC50 was 5.77.
Work on COC[C@@H]1COc2ccc(F)cc2-c2nnc(NS(=O)(=O)[C@@H](C)[C@@H](OC(C)C)c3ncc(C)cn3)n21 (mixture of isomers) [Example 23.0, (1S,2S)-N-((5R)-10-fluoro-5-(methoxymethyl)-5,6-dihydro[1,2,4]triazolo[4,3-d][1,4]benzoxazepin-3-yl)-1-(5-methyl-2-pyrimidinyl)-1-(2-propanyloxy)-2-propanesulfonamide and (1S,2S)-N-((5S)-10-fluoro-5-(methoxymethyl)-5,6-dihydro[1,2,4]triazolo[4,3-d][1,4]benzoxazepin-3-yl)-1-(5-methyl-2-pyrimidinyl)-1-(2-propanyloxy)-2-propanesulfonamide] yielded a pEC50 of 7.43.
Work on Cc1cnc([C@H](OC(C)C)[C@H](C)S(=O)(=O)Nc2nnc3n2[C@H](CO)COc2ncccc2-3)nc1 (mixture of isomers) [Example 30.0, (1S,2S)-N-((5R)-5-(hydroxymethyl)-5,6-dihydropyrido[3,2-f][1,2,4]triazolo[4,3-d][1,4]oxazepin-3-yl)-1-(5-methyl-2-pyrimidinyl)-1-(2-propanyloxy)-2-propanesulfonamide and (1S,2S)-N-((5S)-5-(hydroxymethyl)-5,6-dihydropyrido[3,2-f][1,2,4]triazolo[4,3-d][1,4]oxazepin-3-yl)-1-(5-methyl-2-pyrimidinyl)-1-(2-propanyloxy)-2-propanesulfonamide] yielded a pEC50 of 6.34.
In the case of CC(C)O[C@@H](c1ncc(Cl)cn1)[C@H](C)S(=O)(=O)Nc1nnc2n1[C@H](CO)COc1ncccc1-2 (mixture of isomers) [Example 31.0, (1S,2S)-1-(5-chloro-2-pyrimidinyl)-N-((5R)-5-(hydroxymethyl)-5,6-dihydropyrido[3,2-f][1,2,4]triazolo[4,3-d][1,4]oxazepin-3-yl)-1-(2-propanyloxy)-2-propanesulfonamide and (1S,2S)-1-(5-chloro-2-pyrimidinyl)-N-((5S)-5-(hydroxymethyl)-5,6-dihydropyrido[3,2-f][1,2,4]triazolo[4,3-d][1,4]oxazepin-3-yl)-1-(2-propanyloxy)-2-propanesulfonamide], the pEC50 was 6.14.
Molecule COC[C@@H]1COc2ncccc2-c2nnc(NS(=O)(=O)[C@@H](C)[C@@H](OC(C)C)c3ncc(C)cn3)n21 (mixture of isomers) [Example 32.0, (1S,2S)-N-((5R)-5-(methoxymethyl)-5,6-dihydropyrido[3,2-f][1,2,4]triazolo[4,3-d][1,4]oxazepin-3-yl)-1-(5-methyl-2-pyrimidinyl)-1-(2-propanyloxy)-2-propanesulfonamide and (1S,2S)-N-((5S)-5-(methoxymethyl)-5,6-dihydropyrido[3,2-f][1,2,4]triazolo[4,3-d][1,4]oxazepin-3-yl)-1-(5-methyl-2-pyrimidinyl)-1-(2-propanyloxy)-2-propanesulfonamide] has a pEC50 of 6.85.
COC[C@@H]1COc2c(OC)cccc2-c2nnc(NS(=O)(=O)[C@@H](C)[C@@H](OC(C)C)c3ncc(C)cn3)n21 (mixture of isomers) [Example 33.0, (1S,2S)-N-((5R)-8-methoxy-5-(methoxymethyl)-5,6-dihydro[1,2,4]triazolo[4,3-d][1,4]benzoxazepin-3-yl)-1-(5-methyl-2-pyrimidinyl)-1-(2-propanyloxy)-2-propanesulfonamide and (1S,2S)-N-((5S)-8-methoxy-5-(methoxymethyl)-5,6-dihydro[1,2,4]triazolo [4,3-d][1,4]benzoxazepin-3-yl)-1-(5-methyl-2-pyrimidinyl)-1-(2-propanyloxy)-2-propanesulfonamide] was tested, and the pEC50 was 7.82.
For CO[C@H](c1ncc(C)cn1)[C@H](C)S(=O)(=O)Nc1nnc2n1[C@H](CO)COc1ncccc1-2 (mixture of isomers) [Example 36.0, (1R,2S)-N-((5R)-5-(hydroxymethyl)-5,6-dihydropyrido[3,2-f][1,2,4]triazolo[4,3-d][1,4]oxazepin-3-yl)-1-methoxy-1-(5-methyl-2-pyrimidinyl)-2-propanesulfonamide and (1R,2S)-N-((5S)-5-(hydroxymethyl)-5,6-dihydropyrido[3,2-f][1,2,4]triazolo[4,3-d][1,4]oxazepin-3-yl)-1-methoxy-1-(5-methyl-2-pyrimidinyl)-2-propanesulfonamide], the pEC50 was 5.74.
COC[C@@H]1COc2ncccc2-c2nnc(NS(=O)(=O)[C@@H](C)[C@@H](OC(C)C)c3ncc(Cl)cn3)n21 (mixture of isomers) [Example 37.0, (1S,2S)-1-(5-chloro-2-pyrimidinyl)-N-((5R)-5-(methoxymethyl)-5,6-dihydropyrido[3,2-f][1,2,4]triazolo[4,3-d][1,4]oxazepin-3-yl)-1-(2-propanyloxy)-2-propanesulfonamide and (1S,2S)-1-(5-chloro-2-pyrimidinyl)-N-((5S)-5-(methoxymethyl)-5,6-dihydropyrido[3,2-f][1,2,4]triazolo[4,3-d][1,4]oxazepin-3-yl)-1-(2-propanyloxy)-2-propanesulfonamide] showed a pEC50 of 7.52.
COC[C@@H]1COc2ccc(F)cc2-c2nnc(NS(=O)(=O)CCc3ncc(C)cn3)n21 (mixture of isomers) [Example 42.0, N-((5R)-10-fluoro-5-(methoxymethyl)-5,6-dihydro[1,2,4]triazolo[4,3-d][1,4]benzoxazepin-3-yl)-2-(5-methyl-2-pyrimidinyl)ethanesulfonamide and N-((5S)-10-fluoro-5-(methoxymethyl)-5,6-dihydro[1,2,4]triazolo[4,3-d][1,4]benzoxazepin-3-yl)-2-(5-methyl-2-pyrimidinyl)ethanesulfonamide] gave a pEC50 of 5.39.
CO[C@H](c1ncc(C)cn1)[C@H](C)S(=O)(=O)Nc1nnc2n1[C@H](COC(C)C)COc1ncccc1-2 (mixture of isomers) [Example 56.0, (1R,2S)-N-((R)-5-(isopropoxymethyl)-5,6-dihydropyrido[3,2-f][1,2,4]triazolo[4,3-d][1,4]oxazepin-3-yl)-1-methoxy-1-(5-methylpyrimidin-2-yl)propane-2-sulfonamide and (1R,2S)-N-((S)-5-(isopropoxymethyl)-5,6-dihydropyrido[3,2-f][1,2,4]triazolo[4,3-d][1,4]oxazepin-3-yl)-1-methoxy-1-(5-methylpyrimidin-2-yl)propane-2-sulfonamide] gave a pEC50 of 5.66.
Cc1cnc([C@@H](OC(C)C)[C@H](C)S(=O)(=O)Nc2nnc3n2[C@H](CO)COc2ncccc2-3)nc1 (mixture of isomers) [Example 57.0, (1R,2S)-N-((5R)-5-(hydroxymethyl)-5,6-dihydropyrido[3,2-f][1,2,4]triazolo[4,3-d][1,4]oxazepin-3-yl)-1-(5-methyl-2-pyrimidinyl)-1-(2-propanyloxy)-2-propanesulfonamide and (1R,2S)-N-((5S)-5-(hydroxymethyl)-5,6-dihydropyrido[3,2-f][1,2,4]triazolo[4,3-d][1,4]oxazepin-3-yl)-1-(5-methyl-2-pyrimidinyl)-1-(2-propanyloxy)-2-propanesulfonamide] was tested, and the pEC50 was < 4.90.
Work on Cc1cnc([C@H](OC(C)C)[C@H](C)S(=O)(=O)Nc2nnc3n2[C@H](CO)COc2cccnc2-3)nc1 (mixture of isomers) [Example 58.0, (1S,2S)-N-((R)-5-(hydroxymethyl)-5,6-dihydropyrido[2,3-f][1,2,4]triazolo[4,3-d][1,4]oxazepin-3-yl)-1-isopropoxy-1-(5-methylpyrimidin-2-yl)propane-2-sulfonamide and (1S,2S)-N-((S)-5-(hydroxymethyl)-5,6-dihydropyrido[2,3-f][1,2,4]triazolo[4,3-d][1,4]oxazepin-3-yl)-1-isopropoxy-1-(5-methylpyrimidin-2-yl)propane-2-sulfonamide] yielded a pEC50 of 5.68.
